According to PMC12858582, “A coral-derived neuropeptide suppresses pentylenetetrazol (PTZ)-induced epileptic seizures and improves recognition memory deficits by modulating NPY-Y1R” (Archives of Toxicology, 2025):
Where no end group is shown, it is not given here.

Key:
HT22 cells = assay: HT22 cell viability (MTT assay); type: cell-based, mouse; conditions: for cell viability: 24 h
Experimental: The HT22 cell line was obtained from the ATCC (Manassas, VA, USA) and cultured in DMEM medium with an additional 10% fetal bovine serum (Gibco, US origin), 1% penicillin (100 U/mL) and streptomycin 100 (µg/mL) in a humidified 5% CO2 atmosphere at 37 °C. Cell viability was evaluated by measuring the activity of mitochondrial dehydrogenases with 3-(4,5-dimethyl-2-thiazolyl) 2,5 diphenyl-2H-tetrazolium bromide (MTT) assay (Sigma-Aldrich, USA). Briefly, HT22 cells were seeded in 96-well plates at a density of 8 × 10^3 cells per well. After various drug incubation, cells were incubated in 0.5 mg/mL MTT solution for 4 h at 37 °C. The supernatant medium was then discarded, and 100 µL of DMSO per well was added to dissolve the violet-formazan crystals. The absorbance at 570 nm wavelength was then tested by SpectraMax M5 (Wallac, The Netherlands). Under the same cell culture conditions as the cell viability assay, cytotoxicity was also evaluated via LDH release using an LDH assay kit (Beyotime, China). After different treatments, the supernatant of the cell culture medium was collected and tested according to the manufacturer’s protocol. The absorbance at 490 nm wavelength of supernatant was recorded by SpectraMax M5 (Wallac, The Netherlands).

C57BL/6 J mice [1] = assay: PTZ-kindling-induced epileptic mice model; type: in vivo
Experimental: The PTZ-kindling-induced epileptic mice model was monitored as previously described (Singh et al. [2021]). PTZ (30 mg/kg, subconvulsive dose) was dissolved in saline and administered via intraperitoneal injection. TpNPY was dissolved in saline and delivered through daily intravenous injection of increasing concentrations (0.25 mg/kg, 0.5 mg/kg and 1 mg/kg) 30 min before PTZ injections for 14 consecutive days. Randomized grouping was used to divide C57BL/6 mice into 7 groups with 10 mice in each group. Then, behavioral observation was carried out at the same time, until the seizure of mice was kindled. The PTZ-only group was not exposed to TpNPY, and the control group was only given saline.

C57BL/6 J mice [2] = assay: Morris water maze (MWM) test; type: in vivo; conditions: MWM test stage, n = 6
Experimental: The Morris Water Maze (MWM) test assessed spatial learning and memory in mice (Bromley-Brits et al. [2011]). A circular pool (opaque with milk powder) was divided into four quadrants, with a hidden platform submerged in the third quadrant. Eight-week-old male C57BL/6 J mice were trained over five days (4 trials/day) to locate the platform, guided by visual cues. Escape latency (max 60 s) and platform stay time (30 s) were recorded. A probe trial (platform removed) was conducted 24 h post-training, recording time to the platform site, crossings, speed, and distance via a video camera connected to the ANY-maze Video Tracking System.

zebrafish larvae = assay: Zebrafish larvae survival/mortality; type: in vivo; conditions: 24 h exposure, 6-dpf AB wild-type larvae
Experimental: The 6-day post-fertilization (6-dpf) AB wild-type zebrafish were treated with various concentrations of TpNPY for 24 h in zebrafish-specific E3 culture medium. The mortality of zebrafish was calculated based on the observation of their heartbeat. To trigger seizures, zebrafish larvae were subjected to zebrafish culture medium containing 10 mM PTZ (Sigma-Aldrich, purity ≥ 99%) in 96-well plates. Their locomotor behaviors were recorded using a digital video tracking system (ViewPoint Behavior Technology, France).

[3] = biological target: T1, NPY-Y1 receptor (NPY-Y1R) (Homo sapiens, UniProt P25929); assay: SPR
T1 chain: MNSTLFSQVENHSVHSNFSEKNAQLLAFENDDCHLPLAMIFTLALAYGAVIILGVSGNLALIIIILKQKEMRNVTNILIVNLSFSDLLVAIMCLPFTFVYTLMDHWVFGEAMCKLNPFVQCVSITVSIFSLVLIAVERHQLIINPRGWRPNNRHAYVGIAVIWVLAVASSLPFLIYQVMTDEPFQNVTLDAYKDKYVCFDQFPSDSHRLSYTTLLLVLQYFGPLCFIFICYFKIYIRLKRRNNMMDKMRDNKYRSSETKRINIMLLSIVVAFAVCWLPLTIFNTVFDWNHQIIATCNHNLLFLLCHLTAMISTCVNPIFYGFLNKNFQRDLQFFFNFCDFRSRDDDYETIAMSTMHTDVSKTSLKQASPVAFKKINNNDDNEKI

`N[C@@H](CCC(=O)O)C(=O)O` [glutamate] was tested, and the cell viability (HT22 cells; 10 mM glutamate) was 78.22%, the cell viability (HT22 cells; 15 mM glutamate) was 64.78% and the cell viability (HT22 cells; 20 mM glutamate) was 40.82%.

For `C1CCc2nnnn2CC1` [PTZ, Pentylenetetrazole, reference compound], the seizure score (C57BL/6 J mice [1]; PTZ-treated group, PTZ 30 mg/kg i.p., no TpNPY, after 15 injections, mean ± SEM, SEM) was 4.91 ± 0.41.

With “VGGPPKRPESFKSMAELNAYLSDLAGYYTVIGRPRF-NH2 [TpNPY]” the swimming speed (C57BL/6 J mice [2]) was “without affecting swimming speed”, the “cell viability (cytotoxicity of TpNPY)” value (HT22 cells; 1.56 to 50 μM, 24 h incubation) was “did not elicit any significant changes in cell viability” and the “mortality rate of zebrafish larvae” value (zebrafish larvae; 40 μM) was “approximately 50%”. For the same molecule, the “survival rate of zebrafish larvae” value (zebrafish larvae; 6-25 μM) was “did not lead to any substantial changes in the survival rate” and the “behavior of mice, TpNPY alone” value (C57BL/6 J mice [1]; TpNPY without PTZ) was “no obvious influence on the behavior of mice”.

B1: TpNPY (peptide)
chain: VGGPPKRPESFKSMAELNAYLSDLAGYYTVIGRPRF-NH2
Work on B1 yielded a Kd [3] of 1980 nM.
